Data as given in ChEMBL document CHEMBL4043155, “Development of helix-stabilized antimicrobial peptides composed of lysine and hydrophobic α,α-disubstituted α-amino acid residues” (2017).
Values after ≈ are worked out from the molar mass of the structure shown. Where a SMILES comes first, the peptide text is derived from it. [ ]: non-standard residue; d: D form. Ac6c = NC1(C(=O)O)CCCCC1; Ac5c = NC1(C(=O)O)CCCC1

How the values were obtained:
Type in all cases: functional
Escherichia coli = experiment: Antimicrobial activity against Escherichia coli NBRC 3972 after 16 hrs by microbroth dilution method; conditions: NBRC 3972, 16 h
Staphylococcus aureus = experiment: Antimicrobial activity against Staphylococcus aureus NBRC 13276 after 16 hrs by microbroth dilution method; conditions: NBRC 13276, 16 h
Pseudomonas aeruginosa = experiment: Antimicrobial activity against Pseudomonas aeruginosa NBRC 13275 after 16 hrs by microbroth dilution method; conditions: NBRC 13275, 16 h

Molecule	MIC (Escherichia coli) [µM]	MIC (Staphylococcus aureus) [µM]	MIC (Pseudomonas aeruginosa) [µM]
CC(=O)NC(CCCCN)C(=O)NC(CCCCN)C(=O)NC(C)(C)C(=O)NC(CCCCN)C(=O)NC(CCCCN)C(=O)NC(C)(C)C(=O)NC(CCCCN)C(=O)NC(CCCCN)C(=O)NC(C)(C)C(N)=O (racemic)	> 800	> 800	> 800
CC(=O)N[C@H](CCCCN)C(=O)N[C@H](CCCCN)C(=O)NC(C)(C)C(=O)N[C@H](CCCCN)C(=O)N[C@H](CCCCN)C(=O)NC(C)(C)C(=O)N[C@H](CCCCN)C(=O)N[C@H](CCCCN)C(=O)NC(C)(C)C(N)=O	> 800	> 800	> 800
Ac-KKAKKAKKA-NH2	> 800	> 800	> 800
Ac-KKGKKGKKG-NH2	> 800	> 800	> 800

More lines, now with the values ahead:

MIC (Escherichia coli) [µM]	MIC (Staphylococcus aureus) [µM]	MIC (Pseudomonas aeruginosa) [µM]	Molecule
> 800	> 800	> 800	CC(=O)N[C@@H](CCCCN)C(=O)N[C@H](CCCCN)C(=O)NC(C)(C)C(=O)N[C@@H](CCCCN)C(=O)N[C@H](CCCCN)C(=O)NC(C)(C)C(=O)N[C@@H](CCCCN)C(=O)N[C@H](CCCCN)C(=O)NC(C)(C)C(N)=O
25 (≈ 30.1 µg/mL)	> 800	50 (≈ 60.2 µg/mL)	CC(=O)N[C@@H](CCCCN)C(=O)N[C@@H](CCCCN)C(=O)NC1(C(=O)N[C@@H](CCCCN)C(=O)N[C@@H](CCCCN)C(=O)NC2(C(=O)N[C@@H](CCCCN)C(=O)N[C@@H](CCCCN)C(=O)NC3(C(N)=O)CCCCC3)CCCCC2)CCCCC1 (Ac-KK[Ac6c]KK[Ac6c]KK[Ac6c]-NH2)
50	200	12.5	Ac-GIGKFLHSAKKFGKAFVGEIMNS-NH2
50 (≈ 58.1 µg/mL)	> 800	400 (≈ 465 µg/mL)	CC(=O)N[C@@H](CCCCN)C(=O)N[C@@H](CCCCN)C(=O)NC1(C(=O)N[C@@H](CCCCN)C(=O)N[C@@H](CCCCN)C(=O)NC2(C(=O)N[C@@H](CCCCN)C(=O)N[C@@H](CCCCN)C(=O)NC3(C(N)=O)CCCC3)CCCC2)CCCC1 (Ac-KK[Ac5c]KK[Ac5c]KK[Ac5c]-NH2)
400 (≈ 433 µg/mL)	> 800	> 800	CC(=O)N[C@@H](CCCCN)C(=O)N[C@@H](CCCCN)C(=O)NC(C)(C)C(=O)N[C@@H](CCCCN)C(=O)N[C@@H](CCCCN)C(=O)NC(C)(C)C(=O)N[C@@H](CCCCN)C(=O)N[C@@H](CCCCN)C(=O)NC(C)(C)C(N)=O
